Values joined by “and” are separate entries in the source; they are usually repeats but may differ in a detail not shown here. Equal entries are not always repeated. Where two headings read alike, the source gives them in different places.
Tests used:
[1] = biological target: T1, ZmADK2 (Zea mays, UniProt B4FFH8, T4S); assay: ADK activity, coupled reaction with PK and LDH; assay type: biochemical; conditions: pH 7.5
Protocol: (§1) Substrate analogs were purchased from Sigma-Aldrich (www.sigmaaldrich.com). The ADK activity was measured spectrophotometrically on an Agilent 8453 UV-Vis spectrophotometer (www.agilent.com) at 30 °C using a coupled reaction with pyruvate kinase (PK) and lactate dehydrogenase (LDH) (www.sigmaaldrich.com) ([Blondin et al., 1994]). In this assay, PK converts ADP produced by ADK and phosphoenolpyruvate (PEP) to pyruvate. Subsequently, LDH then converts pyruvate to lactate using the coenzyme NADH, with the conversion monitored at 340 nm. The reaction was conducted in 50 mM Tris–HCl buffer at pH 7.5, containing 50 mM KCl, 6 mM MgCl2, 300 µM PEP, 200 µM NADH, 10 mM ATP, 2 U of PK, and 2.5 U of LDH, using various nucleoside substrates. Kinetic constants were determined using GraphPad Prism 8.0 software (www.graphpad.com). Each measurement was performed six times using repetitive purified enzymes. The activities of all five ADKs were also measured by HPLC ([Moffatt et al., 1991]). The reaction mixture comprised 50 mM Tris–HCl pH 7.5, 5 mM MgCl2, 0.5 mM DTT, 30 mM NaF, 5 mM ATP, 40 µM substrate, and 2–150 ng of purified ADK, depending on the isoform. The reaction was incubated at 30 °C for up to 1 h. […] Similarly, the conversion of cytokinin ribosides to monophosphates was followed on a LiChrosphere 60 RP-Select B (5 µm) LiChroCART column 125-4 column equilibrated with 10 mM triethylamine at pH 5.4 plus 10% methanol, and stepwise eluted with 100% methanol.

[2] = biological target: T1, ZmADK2; assay: Binding affinity by microscale thermophoresis (MST); conditions: for Kd: MST; for weaker affinity compared with Ado: ratio of KD values
Protocol: (§2) The microscale thermophoresis (MST) method was used to determine the binding affinity of various ribosides for ZmADK2 and PpADK1. Proteins were fluorescently labeled with RED-tris-NTA dye (www.nanotemper-technologies.com) using a 1:1 dye/protein molar ratio. The labeled protein was adjusted to 100–300 nM in 50 mM HEPES buffer pH 7.5, 1 mM MgCl2, and 0.2% Tween. Measurements were performed in premium capillaries on a Monolith NT.115 instrument at 30 °C with 5 s/30 s/5 s laser off/on/off times, respectively, with continuous sample fluorescence recording. Thermal stability was measured by nano-differential scanning fluorimetry on a Prometheus NT.48 instrument (www.nanotemper-technologies.com) in various buffers covering a pH (7.0–9.5) and temperature range (25–95 °C), with a heating rate of 1 °C min^–1, and using NT melting control software. Protein unfolding was measured by detecting the temperature-induced change in tryptophan fluorescence intensity at emission wavelengths of 330±5 nm and 350±5 nm. The melting temperature (Tm) was deduced from the maximum of the first derivative of the fluorescence ratios F350/F330.

[3] = biological target: PpADK2 (Physcomitrium patens, UniProt A9RF27); assay: ADK activity, coupled reaction with PK and LDH; conditions: 10 mM ATP, pH 7.5, 30 °C; for Specific activity: 100 µM substrate
PpADK2, sequence (A9RF27 entry or part of it): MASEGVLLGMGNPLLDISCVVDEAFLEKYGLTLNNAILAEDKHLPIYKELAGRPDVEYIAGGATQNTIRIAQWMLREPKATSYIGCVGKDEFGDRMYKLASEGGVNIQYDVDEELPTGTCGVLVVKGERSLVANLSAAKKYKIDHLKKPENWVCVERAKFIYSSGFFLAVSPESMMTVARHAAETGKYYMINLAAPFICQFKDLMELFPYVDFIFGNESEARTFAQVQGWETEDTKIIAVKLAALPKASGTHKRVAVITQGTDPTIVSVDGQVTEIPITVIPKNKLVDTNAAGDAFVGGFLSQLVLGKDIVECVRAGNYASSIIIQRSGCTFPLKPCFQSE
Protocol: as §1

[4] = biological target: ZmADK1 (Zea mays, UniProt K7UH13); assay: ADK activity, coupled reaction with PK and LDH; conditions: 10 mM ATP, pH 7.5, 30 °C; for Specific activity: 100 µM substrate
ZmADK1, sequence (K7UH13 entry or part of it): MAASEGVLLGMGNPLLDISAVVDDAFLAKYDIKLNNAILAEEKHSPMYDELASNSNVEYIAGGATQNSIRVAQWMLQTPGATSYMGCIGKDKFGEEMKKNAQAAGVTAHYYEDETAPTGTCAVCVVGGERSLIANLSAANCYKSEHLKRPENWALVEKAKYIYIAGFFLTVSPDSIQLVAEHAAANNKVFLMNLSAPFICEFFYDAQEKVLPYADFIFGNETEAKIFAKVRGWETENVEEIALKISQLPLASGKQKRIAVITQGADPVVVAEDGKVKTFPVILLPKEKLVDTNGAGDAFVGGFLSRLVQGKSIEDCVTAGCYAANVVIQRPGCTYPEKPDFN
Protocol: as §1

[5] = biological target: ZmADK3 (Zea mays, UniProt A0A1D6E5Z5); assay: ADK activity, coupled reaction with PK and LDH; assay type: biochemical; conditions: ZmADK3, 10 mM ATP, pH 7.5, 30 °C; for Specific activity: 100 µM substrate
ZmADK3, sequence (A0A1D6E5Z5 entry or part of it): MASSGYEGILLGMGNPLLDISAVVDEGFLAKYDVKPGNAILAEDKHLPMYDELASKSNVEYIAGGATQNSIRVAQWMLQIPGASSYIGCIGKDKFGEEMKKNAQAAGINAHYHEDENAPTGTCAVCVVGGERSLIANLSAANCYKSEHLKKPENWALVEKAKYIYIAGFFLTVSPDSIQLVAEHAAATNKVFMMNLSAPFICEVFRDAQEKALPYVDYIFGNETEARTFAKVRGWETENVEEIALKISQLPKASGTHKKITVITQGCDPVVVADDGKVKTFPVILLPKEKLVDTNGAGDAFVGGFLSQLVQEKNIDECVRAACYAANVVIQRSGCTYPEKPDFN
Protocol: Substrate analogs were purchased from Sigma-Aldrich (www.sigmaaldrich.com). […] In this assay, PK converts ADP produced by ADK and phosphoenolpyruvate (PEP) to pyruvate. Subsequently, LDH then converts pyruvate to lactate using the coenzyme NADH, with the conversion monitored at 340 nm. The reaction was conducted in 50 mM Tris–HCl buffer at pH 7.5, containing 50 mM KCl, 6 mM MgCl2, 300 µM PEP, 200 µM NADH, 10 mM ATP, 2 U of PK, and 2.5 U of LDH, using various nucleoside substrates. Kinetic constants were determined using GraphPad Prism 8.0 software (www.graphpad.com). Each measurement was performed six times using repetitive purified enzymes. […] The reaction mixture comprised 50 mM Tris–HCl pH 7.5, 5 mM MgCl2, 0.5 mM DTT, 30 mM NaF, 5 mM ATP, 40 µM substrate, and 2–150 ng of purified ADK, depending on the isoform. The reaction was incubated at 30 °C for up to 1 h.

[6] = biological target: T2, PpADK1 (Physcomitrium patens, UniProt O49923); assay: ADK activity, coupled reaction with PK and LDH; assay type: biochemical, Physcomitrella patens; conditions: 100 µM substrate, 10 mM ATP, pH 7.5, 30 °C
T2 construct: made in house; host or cells: E. coli T7 Express Iq
T2 sequence (O49923 whole entry): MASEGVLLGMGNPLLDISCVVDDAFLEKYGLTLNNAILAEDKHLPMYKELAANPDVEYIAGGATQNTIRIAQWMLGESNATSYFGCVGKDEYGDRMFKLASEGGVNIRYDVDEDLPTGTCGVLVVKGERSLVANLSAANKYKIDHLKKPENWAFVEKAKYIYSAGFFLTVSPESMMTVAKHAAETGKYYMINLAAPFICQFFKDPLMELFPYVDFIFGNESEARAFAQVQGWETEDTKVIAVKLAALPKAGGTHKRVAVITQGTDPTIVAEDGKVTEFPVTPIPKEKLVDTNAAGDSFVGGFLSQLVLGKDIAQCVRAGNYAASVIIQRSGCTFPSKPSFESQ
Protocol: as §1

[7] = biological target: T2, PpADK1; assay: Binding affinity by microscale thermophoresis (MST); parameters: species or system Physcomitrella patens
Protocol: as §2

[8] = system: rabbit ADK; parameters: method as in Miller et al., 1979a; conditions: ref Miller et al., 1979a; cited from earlier work
[9] = system: all five ADKs; assay: ADK kinetics, coupled reaction (summary for all isoforms); assay type: biochemical, Zea mays, Physcomitrella patens; conditions: range over all five ADKs
Protocol: Substrate analogs were purchased from Sigma-Aldrich (www.sigmaaldrich.com). The ADK activity was measured spectrophotometrically on an Agilent 8453 UV-Vis spectrophotometer (www.agilent.com) at 30 °C using a coupled reaction with pyruvate kinase (PK) and lactate dehydrogenase (LDH) (www.sigmaaldrich.com) ([Blondin et al., 1994]). In this assay, PK converts ADP produced by ADK and phosphoenolpyruvate (PEP) to pyruvate. Subsequently, LDH then converts pyruvate to lactate using the coenzyme NADH, with the conversion monitored at 340 nm. The reaction was conducted in 50 mM Tris–HCl buffer at pH 7.5, containing 50 mM KCl, 6 mM MgCl2, 300 µM PEP, 200 µM NADH, 10 mM ATP, 2 U of PK, and 2.5 U of LDH, using various nucleoside substrates. Kinetic constants were determined using GraphPad Prism 8.0 software (www.graphpad.com). Each measurement was performed six times using repetitive purified enzymes. The activities of all five ADKs were also measured by HPLC ([Moffatt et al., 1991]). The reaction mixture comprised 50 mM Tris–HCl pH 7.5, 5 mM MgCl2, 0.5 mM DTT, 30 mM NaF, 5 mM ATP, 40 µM substrate, and 2–150 ng of purified ADK, depending on the isoform. The reaction was incubated at 30 °C for up to 1 h. […]

[10] = ZmADK2, 100 µM substrate, 10 mM ATP, 30 °C
[11] = 50 mM HEPES pH 7.5, 1 mM MgCl2, first or only binding event, read-out: KD
[12] = second binding event (ATP site), read-out: second (higher) KD value
[13] = KD, 50 mM HEPES pH 7.5, 1 mM MgCl2, first or only binding event

T1 sequence (B4FFH8 1-342 T4S): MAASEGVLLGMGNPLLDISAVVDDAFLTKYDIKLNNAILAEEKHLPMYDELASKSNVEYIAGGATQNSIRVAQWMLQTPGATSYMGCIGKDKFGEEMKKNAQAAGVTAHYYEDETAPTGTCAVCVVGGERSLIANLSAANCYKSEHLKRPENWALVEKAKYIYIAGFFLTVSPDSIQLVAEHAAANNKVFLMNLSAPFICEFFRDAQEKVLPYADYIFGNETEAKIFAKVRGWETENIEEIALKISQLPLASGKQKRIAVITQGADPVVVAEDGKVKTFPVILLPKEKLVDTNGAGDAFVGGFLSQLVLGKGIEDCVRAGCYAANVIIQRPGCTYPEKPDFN

Compound | Specific activity [1, 10] [nmol s^–1 mg^–1] | Km ([1]; ZmADK2, 10 mM ATP, 30 °C) [µM] | kcat ([1]; ZmADK2, 10 mM ATP, 30 °C) [s^–1] | Kd [2, 11] [µM] | Specific activity [3] [nmol s^–1 mg^–1] | Specific activity [4] [nmol s^–1 mg^–1] | Specific activity [5] [nmol s^–1 mg^–1] | Specific activity [6] [nmol s^–1 mg^–1] | Kd [2, 13] [µM] | further results
CC(C)Nc1ncnc2c1ncn2[C@@H]1O[C@H](CO)[C@@H](O)[C@H]1O [N ^6-IsopropylAdo] | 3.9±0.5 | 54.8 ± 5.8 | 0.19±0.01 | 52.8 ± 13.9 | 0.83±0.05 | 2.2±0.2 | 3.8±0.3 | 0.96±0.09 |  | 
Nc1ncnc2c1ncn2[C@@H]1O[C@H](COP(=O)(O)OP(=O)(O)OP(=O)(O)OP(=O)(O)OP(=O)(O)OC[C@H]2O[C@@H](n3cnc4c(N)ncnc43)[C@H](O)[C@@H]2O)[C@@H](O)[C@H]1O [AP5A, diadenosine pentaphosphate] |  |  |  | 14.5 ± 9.2 |  |  |  |  |  | Kd ([2]; second binding event (ATP site), read-out: second KD value): 949 ± 46 µM; Kd [7, 11]: 8.1 ± 1.1 µM; Kd [7, 12]: 630 ± 120 µM
C/C(=C\CNc1ncnc2c1ncn2[C@@H]1O[C@H](CO)[C@@H](O)[C@H]1O)CO (relative stereo) [tZR, trans-zeatin riboside] | 3.8±0.4 |  |  |  | 0.83±0.08 | 2.7±0.3 | 2.7±0.4 | 0.74±0.06 |  | 
Nc1ncnc2c1ncn2[C@@H]1O[C@H](CO)C[C@H]1O [3′-DeoxyAdo, cordycepin] |  |  |  |  |  |  |  |  | 175 ± 9 | Km [8]: 254 µM
Nc1ncnc2c1ncn2[C@@H]1O[C@H](CO)[C@@H](O)[C@@H]1O [AraA, Adenine arabinoside] |  |  |  |  |  |  |  |  | > 500 | 
OC[C@H]1O[C@@H](n2cnc3c(O)ncnc32)[C@H](O)[C@@H]1O [Inosine] |  |  |  |  |  |  |  |  | 440 ± 180 | 
O=c1[nH]c(=O)c2ncn([C@@H]3O[C@H](CO)[C@@H](O)[C@H]3O)c2[nH]1 [Xanthosine] |  |  |  |  |  |  |  |  | 166 ± 77 | 
O=c1ccn([C@@H]2O[C@H](CO)[C@@H](O)[C@H]2O)c(=O)[nH]1 [Uridine] |  | > 1000 | 0.15±0.03 |  |  |  |  |  | > 5000 | 
C/C(=C\CNc1ncnc2c1ncn2[C@@H]1O[C@H](CO)[C@@H](O)[C@H]1O)CO [ZR] |  |  |  |  |  |  |  |  |  | Km [8]: 20 µM; activity compared with Ado [8]: 6.3%
CN(C)c1ncnc2c1ncn2[C@@H]1O[C@H](CO)[C@@H](O)[C@H]1O [N ^6,N^6-DimethylAdo, 6-(dimethylamino)-9H-purine-9-β-D-riboside] | 3.2±0.0 | 11.2 ± 2.8 | 0.20±0.02 | 12.3 ± 4.6 | 0.86±0.03 | 3.0±0.3 | 5.1±0.4 | 0.91±0.02 |  | 
CC(C)CNc1ncnc2c1ncn2[C@@H]1O[C@H](CO)[C@@H](O)[C@H]1O [N ^6-IsobutylAdo] | 4.2±0.6 | 70.4 ± 8.9 | 0.21±0.01 | 45.9 ± 9.3 | 0.75±0.08 | 2.1±0.4 | 4.8±0.5 | 0.90±0.06 |  | 
Nc1ncnc2c1ncn2C1OC(COP(=O)(O)O)C(O)C1O (stereo not shown) [AMP] |  |  |  |  |  |  |  |  | 247 ± 71 | Kd ([2]; second KD value, KD(2), second binding event (ATP site)): ~8000 µM and 8300 µM; Kd ([2]; second KD value, second binding event (ATP site)): 8300 ± 2070 µM; Kd [7, 11]: 121 µM; Kd [7, 12]: 8300 µM
Nc1ncnc2c1ncn2[C@@H]1O[C@H](COP(=O)(O)OP(=O)(O)O)[C@@H](O)[C@H]1O [ADP] |  |  |  |  |  |  |  |  |  | Kd ([2]; 50 mM HEPES pH 7.5, 1 mM MgCl2, read-out: KD): 10300 ± 1200 µM
Nc1ccn([C@@H]2O[C@H](CO)[C@@H](O)[C@H]2O)c(=O)n1 [Cytidine] |  |  |  |  |  |  |  |  | 286 ± 10 | 
Nc1ncnc2c1ccn2[C@@H]1O[C@H](CO)[C@@H](O)[C@H]1O [7-DeazaAdo, tubercidin] |  | 3.4 ± 0.4 | 0.17±0.01 |  |  |  |  |  | 2.2 ± 0.7 | weaker affinity compared with Ado [2]: ~ 5.5 fold
Nc1nc2c(ncn2[C@@H]2O[C@H](CO)[C@@H](O)[C@H]2O)c(=O)[nH]1 [Guanosine] |  |  |  |  |  |  |  |  | 217 ± 107 | 
CNc1ncnc2c1ncn2[C@@H]1O[C@H](CO)[C@@H](O)[C@H]1O [N ^6-MethylAdo, 6-methylamino-9H-purine-9-β-D-riboside] | 2.9±0.3 | 10.7 ± 1.5 | 0.24±0.02 | 8.7 ± 2.5 | 0.86±0.03 | 2.7±0.2 | 5.1±0.4 | 0.89±0.00 |  | 
OC[C@H]1O[C@@H](n2cnc3c(NCc4ccccc4)ncnc32)[C@H](O)[C@@H]1O [BAPR, 6-benzylaminopurine riboside] | 5.1±0.6 |  |  |  | 0.89±0.07 | 3.3±0.2 | 5.3±0.4 | 0.84±0.04 |  | Km [8]: 12 µM; activity compared with Ado [8]: 29%
CC(C)=CCNc1ncnc2c1ncn2C1OC(CO)C(O)C1O (stereo not shown) [iPR, N ^6-isopentenyl adenosine] |  |  |  |  | 0.83±0.08 | 2.8±0.3 | 5.1±0.3 | 0.93±0.11 | 4.8 ± 1.1 | Specific activity [1]: 4.1±0.4 nmol s^–1 mg^–1; kcat [1]: 0.19±0.01 s^–1; Km [8]: 7 µM; activity compared with Ado [8]: 69%; Km [3]: 4 ± 0.3 µM; kcat [3]: 0.03±0.001 s^–1; Km [4]: 8.5 ± 0.7 µM; kcat [4]: 0.10±0.002 s^–1; Kd [7, 13]: 5.5 µM; Km [5]: 4.3 ± 0.4 µM; kcat [5]: 0.22±0.007 s^–1; Km [9]: 4 to 12 µM
Nc1ncnc2c1ncn2C1CC(O)C(CO)O1 (stereo not shown) [2′-DeoxyAdo] |  | 506 ± 39 | 0.46±0.02 | 505 ± 94 |  |  |  |  |  | Km ([1]; ZmADK2, 10 mM ATP, 30 °C, listed as 2′-deoxyAdo): ~500 µM; Km [8]: 575 µM; Kd ([2]; 50 mM HEPES pH 7.5, 1 mM MgCl2, first or only binding event, listed as 2′-deoxyAdo, read-out: KD): ~500 µM; weaker affinity compared with Ado [2]: ~ 1200 fold
